Measurements published in PMC5218480 (PLoS ONE, 2017).

Test system: MV-4-11 cells
Assay: Gene expression microarray analysis (Affymetrix PrimeView) and GSEA
Format: cell-based, human
Parameters: RFU PODN (11730768_x_at) / Fold change /veh PODN (11730768_x_at) / RFU LINC00158 (11744669_a_at) / Fold change /veh LINC00158 (11744669_a_at) / RFU DUSP10 (11751237_a_at) / Fold change /veh DUSP10 (11751237_a_at) / RFU ID3 (11757404_x_at) / Fold change /veh ID3 (11757404_x_at) / RFU PLEKHG5 (11737974_s_at) / Fold change /veh PLEKHG5 (11737974_s_at) / RFU LRRC4B (11730491_at) / Fold change /veh LRRC4B (11730491_at) / RFU GIMAP4 (11747438_a_at) / Fold change /veh GIMAP4 (11747438_a_at) / RFU KRT8 (11758183_x_at) / Fold change /veh KRT8 (11758183_x_at) / RFU CNN1 (11734310_a_at) / Fold change /veh CNN1 (11734310_a_at) / RFU VPS37D (11726825_at) / Fold change /veh VPS37D (11726825_at) / RFU C10orf10 (11716522_x_at) / Fold change /veh C10orf10 (11716522_x_at) / RFU KIR2DL2 /// KIR2DL4 /// KIR2DL5A /// KIR2DL5B /// KIR2DS1 /// KIR2DS2 /// KIR2DS3 /// KIR2DS4 /// KIR3DL3 /// KIR3DL3 /// KIR3DS1 (11738374_at) / Fold change /veh KIR2DL2 /// KIR2DL4 /// KIR2DL5A /// KIR2DL5B /// KIR2DS1 /// KIR2DS2 /// KIR2DS3 /// KIR2DS4 /// KIR3DL3 /// KIR3DL3 /// KIR3DS1 (11738374_at) / RFU C1QL1 (11718748_at) / Fold change /veh C1QL1 (11718748_at) / RFU TMPRSS4 (11747572_a_at) / Fold change /veh TMPRSS4 (11747572_a_at) / RFU HAMP (11756126_x_at) / Fold change /veh HAMP (11756126_x_at) / RFU RNFT2 (11725882_a_at) / Fold change /veh RNFT2 (11725882_a_at) / RFU NR4A2 (11747474_a_at) / Fold change /veh NR4A2 (11747474_a_at) / RFU ABCC12 (11746883_a_at) / Fold change /veh ABCC12 (11746883_a_at) / RFU TMEM136 (11760407_x_at) / Fold change /veh TMEM136 (11760407_x_at) / RFU CLDN22 /// WWC2 (11732394_at) / Fold change /veh CLDN22 /// WWC2 (11732394_at) / RFU HLA-DPB1 (11760878_x_at) / Fold change /veh HLA-DPB1 (11760878_x_at) / RFU SPINT1 (11716480_a_at) / Fold change /veh SPINT1 (11716480_a_at) / RFU GAP43 (11754022_s_at) / Fold change /veh GAP43 (11754022_s_at) / RFU A4GNT (11735810_at) / Fold change /veh A4GNT (11735810_at) / RFU PRB3 (11715151_x_at) / Fold change /veh PRB3 (11715151_x_at) / RFU TUBB4B (11761932_at) / Fold change /veh TUBB4B (11761932_at) / RFU CAPN14 (11732068_a_at) / Fold change /veh CAPN14 (11732068_a_at) / RFU TMCC2 (11721928_a_at) / Fold change /veh TMCC2 (11721928_a_at) / RFU IRGQ (11745062_a_at) / Fold change /veh IRGQ (11745062_a_at) / RFU FAM174B (11720279_a_at) / Fold change /veh FAM174B (11720279_a_at) / RFU TMPRSS4 (11748680_a_at) / Fold change /veh TMPRSS4 (11748680_a_at) / RFU FAM212B (11763350_a_at) / Fold change /veh FAM212B (11763350_a_at) / RFU PLEKHG5 (11743358_a_at) / Fold change /veh PLEKHG5 (11743358_a_at) / RFU ZSCAN30 (11745921_a_at) / Fold change /veh ZSCAN30 (11745921_a_at) / RFU CMKLR1 (11741424_a_at) / Fold change /veh CMKLR1 (11741424_a_at) / RFU LOC101060620 /// MAPK8IP1 (11723275_at) / Fold change /veh LOC101060620 /// MAPK8IP1 (11723275_at) / RFU SPTSSB (11747773_x_at) / Fold change /veh SPTSSB (11747773_x_at) / RFU PRSS12 (11739890_at) / Fold change /veh PRSS12 (11739890_at) / RFU BIN1 (11741810_x_at) / Fold change /veh BIN1 (11741810_x_at) / RFU WNT11 (11732464_a_at) / Fold change /veh WNT11 (11732464_a_at) / RFU C10orf10 (11716521_a_at) / Fold change /veh C10orf10 (11716521_a_at) / RFU C5orf56 (11738089_at) / Fold change /veh C5orf56 (11738089_at) / RFU CYB561 (11721691_x_at) / Fold change /veh CYB561 (11721691_x_at) / RFU ANKRD19P (11752326_a_at) / Fold change /veh ANKRD19P (11752326_a_at) / RFU OR2T12 /// OR2T33 /// OR2T8 (11738714_s_at) / Fold change /veh OR2T12 /// OR2T33 /// OR2T8 (11738714_s_at) / RFU VCAN (11748164_a_at) / Fold change /veh VCAN (11748164_a_at) / RFU JSRP1 (11732532_at) / Fold change /veh JSRP1 (11732532_at) / RFU KRTAP10-11 (11738290_x_at) / Fold change /veh KRTAP10-11 (11738290_x_at) / RFU MYO3A (11730013_a_at) / Fold change /veh MYO3A (11730013_a_at) / RFU EBF3 (11725865_a_at) / Fold change /veh EBF3 (11725865_a_at) / RFU CAMK2N1 (11719241_x_at) / Fold change /veh CAMK2N1 (11719241_x_at) / RFU C5orf56 (11738088_a_at) / Fold change /veh C5orf56 (11738088_a_at) / RFU OLFML3 (11715873_a_at) / Fold change /veh OLFML3 (11715873_a_at) / RFU LOC100653217 /// NTM (11731650_a_at) / Fold change /veh LOC100653217 /// NTM (11731650_a_at) / RFU MAPK11 (11762145_a_at) / Fold change /veh MAPK11 (11762145_a_at) / RFU FIZ1 (11724087_x_at) / Fold change /veh FIZ1 (11724087_x_at) / RFU OASL (11726364_x_at) / Fold change /veh OASL (11726364_x_at) / RFU SOX15 (11748057_x_at) / Fold change /veh SOX15 (11748057_x_at) / RFU CD79A (11719716_a_at) / Fold change /veh CD79A (11719716_a_at) / RFU HIST1H1D (11736915_at) / Fold change /veh HIST1H1D (11736915_at) / RFU CASKIN2 (11723855_a_at) / Fold change /veh CASKIN2 (11723855_a_at) / RFU LOC730098 (11760151_x_at) / Fold change /veh LOC730098 (11760151_x_at) / RFU OR4N2 (11742367_at) / Fold change /veh OR4N2 (11742367_at) / RFU PRRT2 (11749266_a_at) / Fold change /veh PRRT2 (11749266_a_at) / RFU SNX32 (11753110_a_at) / Fold change /veh SNX32 (11753110_a_at) / RFU CDHR5 (11726645_a_at) / Fold change /veh CDHR5 (11726645_a_at) / RFU RCAN1 (11760418_a_at) / Fold change /veh RCAN1 (11760418_a_at) / RFU FAM167A (11723789_a_at) / Fold change /veh FAM167A (11723789_a_at) / RFU FAM26E (11764081_at) / Fold change /veh FAM26E (11764081_at) / RFU ISYNA1 (11749810_s_at) / Fold change /veh ISYNA1 (11749810_s_at) / RFU ACY1 (11761880_at) / Fold change /veh ACY1 (11761880_at) / RFU 11764098_at / Fold change /veh 11764098_at / RFU SAMD14 (11745864_x_at) / Fold change /veh SAMD14 (11745864_x_at) / RFU NPB (11741838_a_at) / Fold change /veh NPB (11741838_a_at) / RFU TMPRSS6 (11731388_a_at) / Fold change /veh TMPRSS6 (11731388_a_at) / RFU KRTAP10-2 (11738614_at) / Fold change /veh KRTAP10-2 (11738614_at) / RFU ARHGAP8 /// PRR5-ARHGAP8 (11727945_x_at) / Fold change /veh ARHGAP8 /// PRR5-ARHGAP8 (11727945_x_at) / RFU KRTAP5-7 /// NADSYN1 (11734609_at) / Fold change /veh KRTAP5-7 /// NADSYN1 (11734609_at) / RFU RASL12 (11751679_a_at) / Fold change /veh RASL12 (11751679_a_at) / RFU CDKN2B (11736163_a_at) / Fold change /veh CDKN2B (11736163_a_at) / RFU PRF1 (11729649_at) / Fold change /veh PRF1 (11729649_at) / RFU, ZNF638 /// ZNF638-IT1 / Fold change vs veh, ZNF638 /// ZNF638-IT1 / RFU, PANK3 / Fold change vs veh, PANK3 / RFU, SH3YL1 / Fold change vs veh, SH3YL1 / RFU, ZEB2 / Fold change vs veh, ZEB2 / RFU, NRIP1 / Fold change vs veh, NRIP1 / RFU, PTTG1IP / Fold change vs veh, PTTG1IP / RFU, CAPN2 / Fold change vs veh, CAPN2 / RFU, MED14 / Fold change vs veh, MED14 / RFU, SNORA58 / Fold change vs veh, SNORA58 / RFU, C1orf63 / Fold change vs veh, C1orf63 / RFU, LRRFIP1 / Fold change vs veh, LRRFIP1 / RFU, NDUFAF7 / Fold change vs veh, NDUFAF7 / RFU, SLC12A2 / Fold change vs veh, SLC12A2 / RFU, IBTK / Fold change vs veh, IBTK / RFU, ESF1 / Fold change vs veh, ESF1 / Fold change vs veh, TMEM50B / RFU, TAOK1 / Fold change vs veh, TAOK1 / RFU, ACBD3 / Fold change vs veh, ACBD3 / RFU, TMA16 / Fold change vs veh, TMA16 / RFU, RWDD3 / Fold change vs veh, RWDD3 / RFU, BCAT1 / Fold change vs veh, BCAT1 / RFU, EDEM3 / Fold change vs veh, EDEM3 / RFU, TMEM33 / Fold change vs veh, TMEM33 / RFU, WDR75 / Fold change vs veh, WDR75 / RFU, AHCTF1 / Fold change vs veh, AHCTF1 / RFU, TFRC / Fold change vs veh, TFRC / RFU, ZDHHC17 / Fold change vs veh, ZDHHC17 / RFU, NOM1 / Fold change vs veh, NOM1 / RFU, ARL8B / Fold change vs veh, ARL8B / RFU, ZBTB11 / Fold change vs veh, ZBTB11 / RFU, TAMM41 / Fold change vs veh, TAMM41 / RFU, KIAA1704 /// LOC100996395 / Fold change vs veh, KIAA1704 /// LOC100996395 / RFU, ING1 / Fold change vs veh, ING1 / RFU, TRMT61B / Fold change vs veh, TRMT61B / RFU, FUBP3 / Fold change vs veh, FUBP3 / RFU, TP53 / Fold change vs veh, TP53 / RFU, TNKS2 / Fold change vs veh, TNKS2 / RFU, ZFP14 / Fold change vs veh, ZFP14 / RFU, ACTR2 / Fold change vs veh, ACTR2 / RFU, PPP3R1 / Fold change vs veh, PPP3R1 / RFU, PIK3R1 / Fold change vs veh, PIK3R1 / RFU, HNRNPA1 / Fold change vs veh, HNRNPA1 / RFU, RNF170 / Fold change vs veh, RNF170 / RFU, ZNF28 / Fold change vs veh, ZNF28 / RFU, RNGTT / Fold change vs veh, RNGTT / RFU, OGT / Fold change vs veh, OGT / RFU, BRD1 / Fold change vs veh, BRD1 / RFU, MARS / Fold change vs veh, MARS / RFU, ZNF655 / Fold change vs veh, ZNF655 / RFU, FAHD1 / Fold change vs veh, FAHD1 / RFU, BDP1 / Fold change vs veh, BDP1 / RFU, LRRCC1 / Fold change vs veh, LRRCC1 / RFU, ARID1A / Fold change vs veh, ARID1A / RFU, ZNF146 / Fold change vs veh, ZNF146 / RFU, ZNF330 / Fold change vs veh, ZNF330 / RFU, GPN3 / Fold change vs veh, GPN3 / RFU, C9orf123 / Fold change vs veh, C9orf123 / RFU, N4BP2L2 / Fold change vs veh, N4BP2L2 / RFU, ARFIP1 / Fold change vs veh, ARFIP1 / RFU, FAM179B / Fold change vs veh, FAM179B / RFU, BCL10 / Fold change vs veh, BCL10 / RFU, UHRF1BP1L / Fold change vs veh, UHRF1BP1L / RFU, BET1 / Fold change vs veh, BET1 / RFU, CNOT2 / Fold change vs veh, CNOT2 / RFU, ZNF268 / Fold change vs veh, ZNF268 / Fold change vs veh, ZNF507 / RFU, DGCR2 / Fold change vs veh, DGCR2 / RFU, WDSUB1 / Fold change vs veh, WDSUB1 / Fold change vs veh, HSP90B1 /// MIR3652 / RFU, ADSS / Fold change vs veh, ADSS / RFU, GK / Fold change vs veh, GK / RFU, ZNF148 / Fold change vs veh, ZNF148 / RFU, TAF9 / Fold change vs veh, TAF9 / RFU, SLC1A5 / Fold change vs veh, SLC1A5 / RFU, SLMO2 / Fold change vs veh, SLMO2 / RFU, ABCC4 / Fold change vs veh, ABCC4 / RFU, LOC101060439 /// RAP1B / Fold change vs veh, LOC101060439 /// RAP1B / RFU, RFX7 / Fold change vs veh, RFX7 / RFU, GTPBP10 / Fold change vs veh, GTPBP10 / RFU, CNEP1R1 / Fold change vs veh, CNEP1R1 / RFU, BIVM-ERCC5 /// ERCC5 / Fold change vs veh, BIVM-ERCC5 /// ERCC5 / RFU, ILF3 / Fold change vs veh, ILF3 / RFU 11762660_at / Fold change /veh 11762660_at / RFU VCAN (11757783_s_at) / Fold change /veh VCAN (11757783_s_at) / RFU DDX43 (11728927_at) / Fold change /veh DDX43 (11728927_at) / RFU KRT8 (11758188_x_at) / Fold change /veh KRT8 (11758188_x_at) / RFU NKD1 (11759106_at) / Fold change /veh NKD1 (11759106_at) / RFU SRD5A1 (11742802_a_at) / Fold change /veh SRD5A1 (11742802_a_at) / RFU TPSAB1 /// TPSB2 (11721975_s_at) / Fold change /veh TPSAB1 /// TPSB2 (11721975_s_at) / RFU GSTM3 (11746129_a_at) / Fold change /veh GSTM3 (11746129_a_at) / RFU IL23R (11737362_x_at) / Fold change /veh IL23R (11737362_x_at) / RFU TMEM51 (11727254_a_at) / Fold change /veh TMEM51 (11727254_a_at) / RFU PIWIL2 (11732686_x_at) / Fold change /veh PIWIL2 (11732686_x_at) / RFU ORM1 (11744905_x_at) / Fold change /veh ORM1 (11744905_x_at) / RFU CCDC152 (11743942_at) / Fold change /veh CCDC152 (11743942_at) / RFU ECM1 (11717891_a_at) / Fold change /veh ECM1 (11717891_a_at) / RFU IL23R (11748794_a_at) / Fold change /veh IL23R (11748794_a_at) / RFU TNFAIP8L3 (11732012_x_at) / Fold change /veh TNFAIP8L3 (11732012_x_at) / RFU MBOAT4 (11741988_at) / Fold change /veh MBOAT4 (11741988_at) / RFU 11764193_at / Fold change /veh 11764193_at / RFU TMEM53 (11763286_at) / Fold change /veh TMEM53 (11763286_at) / RFU MAGEB2 (11727129_at) / Fold change /veh MAGEB2 (11727129_at) / RFU TMEM200A (11744735_a_at) / Fold change /veh TMEM200A (11744735_a_at) / RFU CCDC152 (11751479_a_at) / Fold change /veh CCDC152 (11751479_a_at) / RFU FAM211A (11726209_a_at) / Fold change /veh FAM211A (11726209_a_at) / RFU RGS16 (11746705_a_at) / Fold change /veh RGS16 (11746705_a_at) / RFU VCAN (11755009_s_at) / Fold change /veh VCAN (11755009_s_at) / RFU RHOB (11743442_s_at) / Fold change /veh RHOB (11743442_s_at) / RFU RGS16 (11720943_a_at) / Fold change /veh RGS16 (11720943_a_at) / RFU RGS16 (11720944_at) / Fold change /veh RGS16 (11720944_at) / RFU, VPS4B / Fold change vs veh, VPS4B / RFU, CREB1 / Fold change vs veh, CREB1 / RFU, DNAJC13 / Fold change vs veh, DNAJC13 / RFU, GNAQ / Fold change vs veh, GNAQ / RFU, CDK5R1 / Fold change vs veh, CDK5R1 / RFU, ZRANB3 / Fold change vs veh, ZRANB3 / RFU, CUL4A / Fold change vs veh, CUL4A / RFU, CCNY / Fold change vs veh, CCNY / RFU, UFL1 / Fold change vs veh, UFL1 / RFU, COG3 / Fold change vs veh, COG3 / RFU, DIAPH2 / Fold change vs veh, DIAPH2 / RFU, SKA2 / Fold change vs veh, SKA2 / RFU, AFF3 / Fold change vs veh, AFF3 / RFU, LMF1 / Fold change vs veh, LMF1 / RFU, IPO11 / Fold change vs veh, IPO11 / RFU, DFFB / Fold change vs veh, DFFB / RFU, FOXP1 / Fold change vs veh, FOXP1 / RFU, CARD8 / Fold change vs veh, CARD8 / RFU, STRN3 / Fold change vs veh, STRN3 / RFU, ADK / Fold change vs veh, ADK / RFU, RASSF2 / Fold change vs veh, RASSF2 / RFU, WIPF1 / Fold change vs veh, WIPF1 / RFU, LARP1B / Fold change vs veh, LARP1B / RFU, RASA1 / Fold change vs veh, RASA1 / RFU, RB1 / Fold change vs veh, RB1 / RFU, PPFIA1 / Fold change vs veh, PPFIA1 / RFU, MAT2A / Fold change vs veh, MAT2A / RFU, CCT5 / Fold change vs veh, CCT5 / RFU, WDR92 / Fold change vs veh, WDR92 / RFU, CUX1 / Fold change vs veh, CUX1 / RFU, TTC7A / Fold change vs veh, TTC7A / RFU, TMEM135 / Fold change vs veh, TMEM135 / RFU, DEPTOR / Fold change vs veh, DEPTOR / RFU, CPM / Fold change vs veh, CPM / RFU, DNAJB6 / Fold change vs veh, DNAJB6 / RFU, CACNA2D3 / Fold change vs veh, CACNA2D3 / RFU, DTX4 / Fold change vs veh, DTX4 / RFU, TFCP2 / Fold change vs veh, TFCP2 / RFU, GMCL1 /// GMCL1P1 / Fold change vs veh, GMCL1 /// GMCL1P1 / RFU, AEBP2 / Fold change vs veh, AEBP2 / RFU, SNHG1 /// SNORD22 /// SNORD25 /// SNORD26 /// SNORD27 /// SNORD28 /// SNORD29 /// SNORD31 / Fold change vs veh, SNHG1 /// SNORD22 /// SNORD25 /// SNORD26 /// SNORD27 /// SNORD28 /// SNORD29 /// SNORD31 / Fold change (Aza/veh), C12orf56 (ProbeSet 11735607_a_at) / Fold change (ACY-1035/veh), C12orf56 (ProbeSet 11735607_a_at) / Fold change (Aza/veh), FGFR1OP (ProbeSet 11751329_s_at) / Fold change (ACY-1035/veh), FGFR1OP (ProbeSet 11751329_s_at) / Fold change (Aza/veh), VPS36 (ProbeSet 11739960_a_at) / Fold change (ACY-1035/veh), VPS36 (ProbeSet 11739960_a_at) / RFU SYPL1 (11715823_x_at) / Fold change /veh SYPL1 (11715823_x_at) / RFU IGFBP7 (11715501_s_at) / Fold change /veh IGFBP7 (11715501_s_at) / RFU REEP3 (11722064_at) / Fold change /veh REEP3 (11722064_at) / RFU IGLL1 (11728026_x_at) / Fold change /veh IGLL1 (11728026_x_at): dose or concentration left out as unconfirmed
Details: ProbeSet 11743510_at; LIST D

Structure (SMILES): Nc1ncn([C@@H]2O[C@H](CO)[C@@H](O)[C@H]2O)c(=O)n1 [azacitidine]
- Fold change vs veh, UFL1: 0.83
